Source: patent US11096923B2, “Pharmaceutical composition containing polymyxin B/trimethoprim based therapeutics” (University of Rochester, priority 2016, dated 2021)
Values joined by “and” are separate entries in the source; they are usually repeats but may differ in a detail not shown here. Equal entries are not always repeated.

Legend:
S. aureus = test: Fractional inhibitory concentration, checkerboard MIC; assay type: cell-based, Staphylococcus aureus; conditions: for MIC in combination: PT combined with tobramycin; for MIC: Staphylococcus aureus
P. aeruginosa = test: as above; assay type: cell-based, Pseudomonas aeruginosa; conditions: for MIC in combination: PT combined with tobramycin; for MIC: Pseudomonas aeruginosa
S. aureus UAMS-1 = test: Selleck library screen in presence of sub-inhibitory polymyxin B/trimethoprim; assay type: cell-based, Staphylococcus aureus; parameters: key: Growth (+); no growth (−)
Method: (§1) To identify agents that potentiate the antimicrobial activity of polymyxin B/trimethoprim we first determined the highest concentration of the polymyxin B/trimethoprim combination that allowed growth of P. aeruginosa strain PAO1 and S. aureus strain UAMS-1.
(§2) For Selleck library screening, individual wells of 96-well microtiter plates containing 88 μl of fresh media were inoculated with approximately 10^5 CFUs of P. aeruginosa strain PAO1 or S. aureus UAMS-1. Next, 2 μl of polymyxin B/trimethoprim was added to a final concentration of 0.2 μg ml^−1 or 1.25 μg ml^−1 for PA01 and UAMS-1, respectively. Library members were then added at either 5 μM or 50 μM final concentration. Plates were incubated at 37° C. for 16 hours and hits were identified as wells with no visible growth.
To do so, 10^5 CFUs of S. aureus strain UAMS-1 were inoculated in individual wells of a microtiter plate supplemented with 1.2 μg ml^−1 of polymyxin B/trimethoprim, (0.25×MIC). Library members were added at low (5 μM) or high (50 μM) concentrations and then scored for agents that inhibited growth following overnight incubation. Such agents were expected to represent compounds that display antimicrobial activity on their own and/or that potentiate the antimicrobial activity of polymyxin B/trimethoprim.

[1] = tested on: S. aureus UAMS-1 biofilms; test: Biofilm susceptibility; assay type: cell-based, Staphylococcus aureus; conditions: established S. aureus biofilm, any concentration tested
From the text: Bacterial strains used in these studies include the conventional laboratory strains Pseudomonas aeruginosa PA01 and Staphylococcus aureus UAMS-1, both of which are antibiotic susceptible and capable of forming robust biofilms. See […], Thomas J R, Nelson […]. Role of the accessory gene regulator (agr) in pathogenesis of staphylococcal osteomyelitis. Infection and immunity 1995; 63:3373-3380. Seven clinical keratitis isolates of Pseudomonas aeruginosa, were collected from the Flaum Eye Institute, Rochester N.Y. and 25 clinical isolates of Staphylococcus aureus from geographically distinct regions of the country where purchased from International Health Management Associates (IHMA; Schaumburg, Ill.). For experiments requiring planktonic cultures, the indicated organism was grown overnight in Luria-Bertani broth (LB; […] Biofilms were established by inoculating individual wells of flat-bottom polystyrene plates (Falcon, Corning Life Sciences; Durham, N.C.) with overnight cultures of the indicated organism into 200 ul of fresh LB to a final concentration of 1×10^7 CFU ml^-1. Plates were placed in a 37° C.-humidified incubator for 72 hours to allow static biofilm formation. Non-adherent cells were aspirated and biofilms were washed twice with phosphate-buffered saline prior to each experiment. […] After 24 hrs the remaining media and non-adherent cells were removed, biofilms were suspended in 0.8% NaCl and plated to quantify surviving bacteria. […] Biofilms were treated in increasing increments ranging from 0 to 64×MIC.

P. aeruginosa PAO1 = test: Selleck library screen in presence of sub-inhibitory polymyxin B/trimethoprim; assay type: cell-based, Pseudomonas aeruginosa; parameters: key: Growth (+); no growth (−)
Method: as §1
as §2, with “growth. […]” for “growth.”

[2] = tested on: planktonic P. aeruginosa cells; test: Antimicrobial kill curves; assay type: cell-based, Pseudomonas aeruginosa; conditions: 2× MIC
Method: Overnight cultures of the indicated organism were used to inoculate (1:100 dilution) 100 ml of fresh media and grown to mid-exponential phase. […] Aliquots were taken at 1, 2, 3, 4, and 24 hours, serial diluted and plated for colony forming units.

Compound: NC[C@H]1O[C@H](O[C@H]2[C@H](O)[C@@H](O[C@H]3O[C@H](CO)[C@@H](O)[C@H](N)[C@H]3O)[C@H](N)C[C@@H]2N)[C@H](N)C[C@@H]1O [Tobramycin, tobramycin]
- MIC in combination (S. aureus; S. aureus 1071788): 0.48 µg/mL
- MIC in combination (S. aureus; S. aureus 1094094): 3.9 µg/mL
- MIC in combination (S. aureus; S. aureus 1094140): 1.9 µg/mL
- MIC in combination (S. aureus; S. aureus 1094147): 3.9 µg/mL
- MIC in combination (S. aureus; S. aureus 1094166): 0.48 µg/mL
- MIC in combination (S. aureus; S. aureus 1094178): 7.8 µg/mL
- MIC in combination (S. aureus; S. aureus 1097612): 3.9 µg/mL
- MIC in combination (S. aureus; S. aureus 1097630): 3.9 µg/mL
- MIC in combination (S. aureus; S. aureus 1101442): 0.97 µg/mL
- MIC in combination (S. aureus; S. aureus 1103430): 0.48 µg/mL
- MIC in combination (S. aureus; S. aureus 1110936): 0.48 µg/mL
- MIC in combination (S. aureus; S. aureus 1111063): 3.9 µg/mL
- MIC in combination (S. aureus; S. aureus 1122181): 3.9 µg/mL
- MIC in combination (S. aureus; S. aureus 1122187): 0.48 µg/mL
- MIC in combination (S. aureus; S. aureus 1122190): 3.9 µg/mL
- MIC in combination (S. aureus; S. aureus 1122197): 0.48 µg/mL
- MIC in combination (S. aureus; S. aureus 1125120): 15.6 µg/mL
- MIC in combination (S. aureus; S. aureus 1132822): 0.97 µg/mL
- MIC in combination (S. aureus; S. aureus 1142776): 0.48 µg/mL
- MIC in combination (S. aureus; S. aureus 1144105): 0.48 µg/mL
- MIC in combination (S. aureus; S. aureus UAMS-1): 0.48 µg/mL
- MIC (S. aureus; S. aureus 1071788): 0.97 µg/mL
- MIC (S. aureus; S. aureus 1094094): 3.9 µg/mL
- MIC (S. aureus; S. aureus 1094140): 7.8 µg/mL
- MIC (S. aureus; S. aureus 1094147): 7.8 µg/mL
- MIC (S. aureus; S. aureus 1094166): 1.9 µg/mL
- MIC (S. aureus; S. aureus 1094178): 7.8 µg/mL
- MIC (S. aureus; S. aureus 1097612): 15.6 µg/mL
- MIC (S. aureus; S. aureus 1097630): 7.8 µg/mL
- MIC (S. aureus; S. aureus 1101442): 3.9 µg/mL
- MIC (S. aureus; S. aureus 1103430): 1.9 µg/mL
- MIC (S. aureus; S. aureus 1110936): 1.9 µg/mL
- MIC (S. aureus; S. aureus 1111063): 7.8 µg/mL
- MIC (S. aureus; S. aureus 1122181): 7.8 µg/mL
- MIC (S. aureus; S. aureus 1122187): 1.9 µg/mL
- MIC (S. aureus; S. aureus 1122190): 7.8 µg/mL
- MIC (S. aureus; S. aureus 1122197): 1.9 µg/mL
- MIC (S. aureus; S. aureus 1125120): 15.6 µg/mL
- MIC (S. aureus; S. aureus 1132822): 3.9 µg/mL
- MIC (S. aureus; S. aureus 1142776): 1.9 µg/mL
- MIC (S. aureus; S. aureus 1144105): 1.9 µg/mL
- MIC (S. aureus; S. aureus UAMS-1): 1.9 µg/mL
- MIC in combination (P. aeruginosa; P. aeruginosa PAO1): 0.12 µg/mL and 0.24 µg/mL
- MIC in combination (P. aeruginosa; P. aeruginosa RW01): 0.12 µg/mL
- MIC in combination (P. aeruginosa; P. aeruginosa RW02): 0.06 µg/mL
- MIC in combination (P. aeruginosa; P. aeruginosa RW03): 0.12 µg/mL
- MIC in combination (P. aeruginosa; P. aeruginosa RW04): 0.12 µg/mL
- MIC in combination (P. aeruginosa; P. aeruginosa RW05): 0.24 µg/mL
- MIC in combination (P. aeruginosa; P. aeruginosa RW06): 0.12 µg/mL
- MIC in combination (P. aeruginosa; P. aeruginosa RW07): 0.12 µg/mL
- MIC (P. aeruginosa; P. aeruginosa RW01): 0.24 µg/mL
- MIC (P. aeruginosa; P. aeruginosa RW02): 0.24 µg/mL
- MIC (P. aeruginosa; P. aeruginosa RW03): 0.24 µg/mL
- MIC (P. aeruginosa; P. aeruginosa RW04): 0.48 µg/mL
- MIC (P. aeruginosa; P. aeruginosa RW05): 0.48 µg/mL
- MIC (P. aeruginosa; P. aeruginosa RW06): 0.24 µg/mL
- MIC (P. aeruginosa; P. aeruginosa RW07): 0.24 µg/mL
- MIC (P. aeruginosa; PAO1, P. aeruginosa PAO1): 0.48 µg/mL
- S. aureus growth, 5 μM (S. aureus UAMS-1; drug 5 μM in presence of 1.2 μg ml^−1 polymyxin B/trimethoprim): +
- S. aureus growth, 50 μM (S. aureus UAMS-1; drug 50 μM in presence of 1.2 μg ml^−1 polymyxin B/trimethoprim): −
- activity against biofilm-associated cells [1]: neither tobramycin, polymyxin B/trimethoprim nor their combination displayed significant activity
- P. aeruginosa growth, 5 μM (P. aeruginosa PAO1; drug 5 μM in presence of 0.2 μg ml^−1 polymyxin B/trimethoprim): −
- P. aeruginosa growth, 50 μM (P. aeruginosa PAO1; drug 50 μM in presence of 0.2 μg ml^−1 polymyxin B/trimethoprim): −
- reduction in CFU at hour 4 ([2]; 4 hours post-treatment): 2 log
- reduction in CFU at 24 hr ([2]; 24 hours): 7 log
